# From patent US9212130B2, “Heterocyclic derivative and pharmaceutical composition comprising the same” (SHIONOGI & CO., LTD., priority 2010, dated 2015)
# What was measured:
# CYP2C9 = CYP2C9 (Homo sapiens (Human), UniProt P11712); test: CYP inhibition test, tolbutamide methyl-hydroxylation; assay type: in vitro ADME; conditions: pooled human hepatic microsome; 100 μmol/L tolbutamide; given as 'five kinds'
# Description: Using commercially available pooled human hepatic microsome, and employing, as markers, 7-ethoxyresorufin O-deethylation (CYP1A2), tolbutamide methyl-hydroxylation (CYP2C9), mephenyloin 4′-hydroxylation (CYP2C19), dextromethorphan O-demethylation (CYP2D6), and terfenedine hydroxylation as typical substrate metabolism reactions of human main five ([…] enzyme forms (CYP1A2, 2C9, 2C19, 2D6, 3A4), an inhibitory degree of each metabolite production amount by a test compound was assessed.
# The reaction conditions were as follows: substrate, 0.5 μmol/L ethoxyresorufin (CYP1A2), 100 μmol/L tolbutamide (CYP2C9), 50 μmol/L S-mephenitoin (CYP2C19), 5 μmol/L dextromethorphan (CYP2D6), 1 μmol/L terfenedine (CYP3A4); reaction time, 15 minutes; reaction temperature, 37° C.; enzyme, pooled human hepatic microsome 0.2 mg protein/mL; test drug concentration, 1.0. 5.0, 10, 20 μmol/L (four points).
# Each five kinds of substrates, human hepatic microsome, or a test drug in 50 mmol/L Hepes buffer as a reaction solution was added to a 96-well plate at the composition as described above. NADPH, as a cofactor was added to initiate metabolism reactions as markers and, after the incubation at 37° C. for 15 minutes, a methanol/acetonitrile=1/1 (v/v) solution was added to stop the reaction. After the centrifugation at 3000 rpm for 15 minutes, resorufin (CYP1A2 metabolite) in the supernatant was quantified by a fluorescent multilabel counter and tributamide hydroxide (CYP2CP metabolite), mephenyloin 4′ hydroxide (CYP2C19 metabolite), […], and terfenadine alcohol (CYP3A4 metabolite) were quantified by LC/MS/MS.
# Addition of only DMSO being a solvent dissolving a drug to a reaction system was adopted as a control (100%), remaining activity (%) was calculated at each concentration of a test drug added as the solution and IC50 was calculated by reverse presumption by a logistic model using a concentration and an inhibition rate.
# CYP3A4 = CYP3A4 (Homo sapiens (Human), UniProt P08684); test: CYP3A4 fluorescent MBI test; assay type: in vitro ADME; conditions: pre-reaction time 0 or 30 minutes; substrate 7-BFC; CYP3A4 expressed in Escherichia coli
# Chain of CYP3A4 (P08684 whole entry): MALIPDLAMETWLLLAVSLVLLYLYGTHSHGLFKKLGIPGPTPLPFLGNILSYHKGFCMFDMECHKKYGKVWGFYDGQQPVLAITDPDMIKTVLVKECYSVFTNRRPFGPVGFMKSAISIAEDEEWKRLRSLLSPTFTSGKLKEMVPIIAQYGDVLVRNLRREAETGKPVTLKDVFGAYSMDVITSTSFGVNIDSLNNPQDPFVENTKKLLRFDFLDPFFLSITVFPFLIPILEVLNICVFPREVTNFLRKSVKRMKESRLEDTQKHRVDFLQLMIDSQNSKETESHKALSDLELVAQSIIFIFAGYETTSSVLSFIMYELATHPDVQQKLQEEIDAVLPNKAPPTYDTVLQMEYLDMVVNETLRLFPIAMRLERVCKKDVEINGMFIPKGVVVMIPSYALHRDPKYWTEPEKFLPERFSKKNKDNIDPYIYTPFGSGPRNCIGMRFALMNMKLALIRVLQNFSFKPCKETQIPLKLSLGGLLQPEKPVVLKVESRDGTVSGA
# Description: The CYP3A4 fluorescent MBI test is a test of investigating enhancement of CYP3A4 inhibition of a compound by a metabolism reaction, and the test is performed using, as CYP3A4 enzyme expressed in Escherichia coli and employing, as an index, a reaction in which 7-benzyloxytrifluoromethylchmarin (BFC) is debenzylated by the CYP3A4 enzyme to produce a metabolite, 7-hydroxytrifluoromethylchmarin (HFC) emitting fluorescent light.
# The reaction conditions were as follows: substrate, 5.6 μmol/L 7-BFC; pre-reaction time, 0 or 30 minutes; reaction time, 15 minutes; reaction temperature, 25° C.
# An enzyme in a K-Pi buffer (pH 7.4) and a test drug solution as a pre-reaction solution were added to a 96-well plate at the composition of the pre-reaction, a part of it was transferred to another 96-well plate so that it was 1/10 diluted by a substrate in a K-Pi buffer, NADPH as a co-factor was added to initiate a reaction as an index (without preincubation) and, after a predetermined time of a reaction, acetonitrile: 0.5 mol/L Tris (trishydroxyaminomethane)=4:1 was added to stop the reaction. In addition, NADPH was added to a remaining preincubation solution to initiate a preincubation (with preincubation) and, after a predetermined time of a preincubation, a part was transferred to another plate so that it was 1/10 diluted with a substrate and a K-Pi buffer to initiate a reaction as an index, After a predetermined time of a reaction, acetonitrile: 0.5 mol/L Tris (trishydroxyaminomethane)=4:1 was added to stop the reaction. For the plate on which each index reaction had been performed, a fluorescent value of 7-HFC which is a metabolite was measured with a fluorescent plate reader. (Ex=420 nm, Em=535 nm).
# Addition of only DMSO which is a solvent dissolving a drug to a reaction system was adopted as a control (100%), remaining activity (%) was calculated at each concentration of a test drug added as the solution, and IC50 was calculated by reverse-presumption by a logistic model using a concentration and an inhibition rate. When a difference between IC50 values is 5 or more, this was defined as (+) and, when the difference is 3 μmol/L or less, this was defined as (−).
# Chain of CYP2C9 (P11712 whole entry): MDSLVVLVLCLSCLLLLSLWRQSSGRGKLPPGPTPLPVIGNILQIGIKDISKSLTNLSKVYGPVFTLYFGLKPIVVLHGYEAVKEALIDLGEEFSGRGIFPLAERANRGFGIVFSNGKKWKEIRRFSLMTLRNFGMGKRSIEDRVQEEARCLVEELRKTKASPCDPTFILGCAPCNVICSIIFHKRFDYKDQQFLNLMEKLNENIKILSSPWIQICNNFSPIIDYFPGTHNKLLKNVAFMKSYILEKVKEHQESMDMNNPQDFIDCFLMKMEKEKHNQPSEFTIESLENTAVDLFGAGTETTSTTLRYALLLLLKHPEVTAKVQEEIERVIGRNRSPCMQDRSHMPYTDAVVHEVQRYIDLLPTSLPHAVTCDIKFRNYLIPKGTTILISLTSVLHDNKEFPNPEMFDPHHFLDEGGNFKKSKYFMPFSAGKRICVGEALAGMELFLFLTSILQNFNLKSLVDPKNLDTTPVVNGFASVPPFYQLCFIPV
smiles,measurement,setting,value
CC(C)Oc1ccc(Nc2cc(=O)n(C[C@H](C)C(=O)O)c(=O)n2Cc2ccc(Cl)cc2)cc1Cl [I-100],IC50,CYP2C9,> 20 µM
same,IC50 difference,CYP3A4,< 3 µM
